Measurements reported in patent US10150793B2, “Antagonists of CB1 receptor” (INSERM (Institut National de la Santé et de la Recherche …, priority 2011, dated 2018).
“Also recorded” adds a separate entry of the source.

Assays:
[1] = biological target: T1, CB1 receptor (Rattus norvegicus, UniProt P20272); assay: THC-induced increase in food intake in ad libitum fed Wistar rats; assay type: in vivo; set-up: tissue Charles River Laboratories (France) (animals); host or cells: living Wistar rats, whole animal; conditions: THC 0.5 mg/kg; 17-methylpregnenolone 8 mg/kg sc
T1 sequence (P20272 whole entry): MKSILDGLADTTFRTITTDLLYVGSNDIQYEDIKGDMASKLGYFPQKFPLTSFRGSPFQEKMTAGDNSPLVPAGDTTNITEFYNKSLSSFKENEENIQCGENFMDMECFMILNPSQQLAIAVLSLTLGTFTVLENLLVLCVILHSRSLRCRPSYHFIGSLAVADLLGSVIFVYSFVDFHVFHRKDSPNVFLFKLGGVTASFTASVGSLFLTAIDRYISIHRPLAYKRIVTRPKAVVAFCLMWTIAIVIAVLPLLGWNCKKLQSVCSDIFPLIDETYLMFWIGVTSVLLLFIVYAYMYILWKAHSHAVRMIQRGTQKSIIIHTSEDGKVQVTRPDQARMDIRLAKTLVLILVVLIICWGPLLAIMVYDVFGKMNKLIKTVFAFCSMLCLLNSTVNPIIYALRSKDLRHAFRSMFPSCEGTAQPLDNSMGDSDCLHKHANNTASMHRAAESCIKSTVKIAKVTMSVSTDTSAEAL
Method: (§1) Food intake was evaluated by measuring consumption of food in the home cages of the animals. For each animal, 50-100 g of standard laboratory chow (U.A.R., France) was placed in the cleaned home cage. The remaining amount of food was weighted 1 h later and the amount of food consumed calculated.

[2] = biological target: T2, CB1 receptor (Mus musculus, UniProt P47746); assay: THC-induced increase in food intake in mice; assay type: in vivo; set-up: tissue Charles River Laboratories (France) (animals); host or cells: living mice, whole animal; conditions: for effect on THC-induced increase in food intake (hyperphagia) in mice: 24 h-food deprived C57B1/6 mice, THC 1 mg/kg, compound 2 mg/kg sc; for % Inhibition of THC-Induced food intake: mice, THC between 0.5 and 1 mg/kg, compounds between 2 and 4 mg/kg 30 min before THC
T2 sequence (P47746 whole entry): as the sequence (P20272 whole entry) above, with E95D counted along it
Method: as §1
(§2) Other pregnenolone derivatives (Table 4) for which the metabolism in downstream active steroids was reduced were tested for their ability to inhibit: 1. effects of the THC-induced cannabinoid tetrade (decrease in body temperature and in locomotor activity, (THC 10 mg/kg, compounds 6 mg/kg 15-30 min before THC) that is recognized as a sound method to evaluate the activation of the CB1 receptor; 2. THC-induced increase in food intake a typical effect of CB1 activation (THC between 0.5 and 1 mg/kg, compounds between 2 and 4 mg/kg 30 min before THC); 3. the increase in TNFalpha induced by LPS, another effects typical of CB1 […] (compounds 6 mg/kg 15 min before LPS). For each compound and each test independent groups of animals were used (at least n=6 per compound/per test).

[3] = test system: TNF-α; assay: Increase in plasma TNF-alpha induced by LPS; assay type: in vivo, mice; conditions: Mus musculus; mice; compounds 6 mg/kg 15 min before LPS
Method: Trunk blood was collected and centrifuged at 3000 rpm for 15 min at 4° C. Plasma was stored at −80° C. until measurement of TNFα was carried out. Plasma TNFα levels were assessed using an ELISA kit, following the manufacturer's instructions (Fisher Scientific, Catalog #E6473C).
In this example the inventors further analyzed the ability of pregnenolone to inhibit the effects of CB1 activation in the context of inflammation and fibrosis. […] TNF-alpha is one of the cellular responses to inflammatory stimuli more involved in promoting fibrosis.
as §2

[4] = test system: CHO cells; assay: Study of metabolism in vitro in CHO cells, steroids in culture medium by GC/MS; conditions: CHO cells
Method: (§3) Plasma, brain and culture medium levels of pregnenolone (5-Pregnen-3β-ol-20-one), allopregnanolone (3α-hydroxy-5α-pregnan-20-one), epiallopregnanolone (3β-hydroxy-5α-pregnan-ol-20-one), testosterone, and 5α dihydrotestosterone were determined by GC/MS according to the of estraction, purification and quantification protocol described previously (George O, et al., Biol Psychiatry. 2010 68: 956-63, Vallee M, et al., Anal Biochem. 2000, 287:153-66).
The CHO-K1 cell line (#CCL-61, ATCC-LGC, USA) derived as a subclone from the parental CHO cell line initiated from a biopsy of an adult Chinese hamster ovary was used. The CHO-K1 cells were seeded on 24-well plates (#353047, BD Biosciences, USA) to the appropriate concentration (25×10^4 cells/well) in fresh, antibiotic-free medium constituted by 90% DMEM-Glutamax; (#31966-21, Life technologies, USA) and 10% Fetal Bovine Serum (#10270-106, Life technologies, USA).
In this example the inventors further analyzed the metabolism of pregnenolone derivatives using an in vitro test in CHO cells. These cells derived from the ovary have all the enzymes needed to metabolize pregnenolone in down stream steroids.

[5] = Allopregnanolone and epiallopregnanolone in nucleus accumbens after high dose injection (GC/MS); assay type: in vivo, Wistar rats; conditions: 50 mg/kg; 30 min after the injections
Method: The capacity of a compound of the invention to be or not to be converted into active pregnenolone downstream derivatives may be evaluated by administering this compound, for example by injecting 50 mg/kg, to a rat, sacrificing the rat 30 min later, measuring the concentration of allopregnanolone and epiallopregnanolone in nucleus accumbens of rat by GC/MS and comparing these concentrations to allopregnanolone and epiallopregnanolone in a rat whose has been injected only a vehicle or pregnenolone.
The concentrations of allopregnanolone and epiallopregnanolone were measured in nucleus accumbens of individual animal by GC/MS 30 min after the injections.

[6] = biological target: T2, CB1 receptor; assay: Food intake in 24 h-food deprived mice (fasting/refeeding); assay type: in vivo, C57B1/6 mice; set-up: tissue Charles River Laboratories (France) (animals); host or cells: living mice, whole animal; conditions: no THC; for first statistically significant dose for decrease of food intake: food-deprived (food-restricted) mice; for effect on food intake in 24 h-food deprived mice: food intake over 1 h
[7] = biological target: T2, CB1 receptor; assay: THC-induced cannabinoid tetrad (body temperature, locomotor activity, catalepsy, analgesia); assay type: in vivo, mice; set-up: tissue Charles River Laboratories (France) (animals); host or cells: living mice, whole animal; conditions: mice; THC 10 mg/kg; compounds 6 mg/kg 15-30 min before THC
[8] = biological target: T1, CB1 receptor; assay: Pregnenolone concentrations in the brain after drugs of abuse and CB1 ligands (GC/MS); assay type: in vivo, Wistar rats; set-up: tissue Charles River Laboratories (France) (animals); host or cells: living Wistar rats, whole animal; conditions: for effect of CB1/CB2 agonists on pregnenolone concentrations: rats, n=6-12 per group
Method: as §3
In this example the inventors analyzed the effects of the injection of the principal drugs of abuse on the production of pregnenolone in male Wistar rats. […] For example, in the brain, starting from pregnenolone two parallel enzymatic cascades allow producing on one hand allopregnanolone and its stereoisomer epiallopregnanolone and on the other testosterone and its metabolite DHT. These brain steroids were quantified using GC-MS, the only technique able to differentiate their subtle structural differences. […] Concentrations of neurosteroids were analyzed 15, 30 and 120 min after the injection in several ascending brain structure, the ventral midbrain the hypothalamus, the striatal complex and the frontal cortex.
The example provides data obtained in the plasma and in several brain structures: frontal cortex (FCX); nucleus accumbens (ACC); striatum (STR); hypothalamus (HYP).
The effects of THC in the brain are mediated by a family of G-protein-coupled seven membrane receptors (GCPR) and principally by the CB1 and CB2 receptors.

[9] = biological target: T1, CB1 receptor; assay: THC inhibition of AMPAR-mediated EPSC, patch clamp in nucleus accumbens slices; assay type: cell-based, rats; set-up: from tissue; host or cells: acute coronal brain slices, nucleus accumbens; conditions: control slices
[10] = biological target: T2, CB1 receptor; assay: THC inhibition of fEPSP in nucleus accumbens slices; assay type: cell-based, mice; set-up: from tissue; host or cells: acute brain slices, nucleus accumbens; conditions: control slices
Method: Animals were deeply anesthetized with Isoflourane and transcardially perfused with a sucrose-based physiological solution at 4° C. (in mM: 23 NaHCO3, 70 Choline Cl, 75 Sucrose, 25 Glucose, 2.5 KCl, 1.25 NaH2PO4, 7 MgCl2 and 0.5 CaCl2). The brain was removed and sliced (250-300 μm) in the coronal plane using a vibratome (Campden Instruments, Loughborough, UK). During the slicing process, the brain was maintained in the sucrose-based solution. Immediately after cutting, slices were stored at 32° C. for 40 minutes in a low-calcium artificial cerebrospinal fluid (low-Ca^2+ ACSF) that contained (in mM): 23 NaHCO3, 120 NaCl, 11 Glucose, 2.5 KCl, 1.2 NaH2PO4, 2.4 MgCl2, 1.2 CaCl2. Slices were then stored in low-Ca^2+ ACSF at room temperature until recording.
For fEPSPs, extracellular glass recording and stimulating electrodes were filled with ACSF. Synaptic potentials were evoked by means of two electric stimuli (0.1-0.25 mA, 200 μsec duration) delivered at 20 Hz every 10 seconds. Stimulating electrode was placed at a distance>150 μm in the dorsomedial direction from the recoding electrode.
In order to test the effect of pregnenolone on a wider range of THC concentrations, we recorded fEPSP in NAc slices. Due to the possibility to achieved stable fEPSP measurements for several hours, this technique is ideally suited to perform dose-response curves and has previously been used to address CB1 receptor function (Robbe et al., 2001; Mato et al., 2004). Thus, AMPAR-mediated evoked fEPSP were recorded by electrically stimulating local axons.

[11] = Elevated plus maze, anxiety-like behaviors; assay type: in vivo, mice; conditions: sc, 30 min before test; pregnenolone 1, 6, 10 mg/kg; rimonabant 10 mg/kg
Method: The elevated plus maze was made by a central platform (10×10 cm) from which departed 4 arms (45×10 cm) at a 90° angle from each other. Two opposite arms, named closed arms had peripheral wall 50 cm high. The two other arms, named open arms had no walls. The maze was suspended at 66 cm from the floor of the room and was brightly lighted (120 lux). The testing consisted in placing the animal in the central platform and the number of entry and the time spent in each compartment of the maze recorded for 5 min. The number of entry and time spent in the open arms are considered and index of anxiety-like behaviors, whilst the total number of entry are and index of locomotor activity.
One of the major side effects of orthosteric antagonists of the CB1 is the induction of behavioral side effect and in particular an axiodepressive state. […] This test has been chosen because an increase in anxiety was the principal undesirable side effect of this compound in humans.

SMILES	effect on increase in food intake induced by THC in ad libitum fed Wistar rats [1]	effect on THC-induced increase in food intake (hyperphagia) in mice [2]	% Inhibition of THC-Induced food intake [2]	metabolism in downstream active steroids (Reduced metabolism / Metabolized) [4]	production of allopregnanolone and epiallopregnanolone in nucleus accumbens [5]	first statistically significant dose for decrease of food intake [6] [mg/kg]	effect on food intake in 24 h-food deprived mice [6]	further results
CC(=O)C1CCC2C3CC=C4C[C@@H](F)CC[C@]4(C)C3CC[C@]12C (stereo partly drawn) [Compound 1, 3β-Fluoropregnenolone]	non statistically significant trend to decrease	decreased THC-induced hyperphagia	≥100%, P < 0.01	Reduced metabolism	None of the modified pregnenolone derivatives	6	dose-dependently decreased food intake	inhibition in vivo at 6 mg/kg [3]: 58%
CC(=O)[C@@]1(C)CCC2C3CC=C4C[C@@H](O)CC[C@]4(C)C3CC[C@@]21C (stereo partly drawn) [Compound 2, 17α-Methylpregnenolone]	significantly reduced; also recorded: decrease significantly the increase in food intake induced by THC in rats	decreased THC-induced hyperphagia	≥100%, P < 0.001	Reduced metabolism	None of the modified pregnenolone derivatives	4	dose-dependently decreased food intake	dose inhibiting THC-induced increase in food-intake (first effective dose) ([2]; dose response in 24 h-food deprived mice, 0.5 mg/kg dose was ineffective): 1 mg/kg; inhibition in vivo at 6 mg/kg [3]: 60%; % Inhibition temperature decrease [7]: 43%, P < 0.001; % increase in motor activity [7]: 240%, P < 0.01
CC(=O)[C@@]1(C)CCC2C3CC=C4C[C@@H](F)CC[C@]4(C)C3CC[C@@]21C (stereo partly drawn) [Compound 3, 3β-Fluoro-17α-methylpregnenolone]	non statistically significant trend to decrease	decreased THC-induced hyperphagia	≥100%, P < 0.01	Reduced metabolism	None of the modified pregnenolone derivatives	6	dose-dependently decreased food intake	
CCCCCCC(C)(C)c1cc(O)c2c(c1)OC(C)(C)[C@@H]1CC=C(CO)C[C@@H]21 [HU210]								effect of CB1/CB2 agonists on pregnenolone concentrations [8]: induced a significant increase in pregnenolone
CCCC(C)(C)c1ccc2c(c1)OC(C)(C)[C@@H]1CC=C(C)C[C@@H]21 [JWH, 133]								effect of CB1/CB2 agonists on pregnenolone concentrations [8]: much lower and not significant effects
CCCCCc1cc(O)c2c(c1)OC(C)(C)[C@@H]1CCC(C)=C[C@@H]21 [THC, Δ9-tetrahydrocannbinol, reference compound]								increase in brain concentrations of pregnenolone ([8]; nucleus accumbens, between 15 and 30 min after the injection, THC 3 mg/kg): around 1500%; ED50 ([8]; rat, 30 min after the injection, THC 0.3-9 mg/kg, read-out: ED50 of the increase in pregnenolone in the brain): ~3 mg/kg; inhibition of EPSC amplitude by THC [9]: 34.3±3.7 % of inhibition; inhibition at 10 µM ([10]; THC 10 μM): 23.9 ± 6%; inhibition at 20 µM ([10]; THC 20 μM): 35.3 ± 4.7%; inhibition at 40 µM ([10]; THC 40 μM): 48.6 ± 3.6%
Cc1c(C(=O)NN2CCCCC2)nn(-c2ccc(Cl)cc2Cl)c1-c1ccc(Cl)cc1 [rimonabant, reference compound]								anxiety-like behavior (entries and time spent in open arms) [11]: anxiogenic effects
